Experimental data reported in patent US9573964B2, “Oxygen linked pyrimidine derivatives” (CTI BIOPHARMA CORP., priority 2005, dated 2017).

Assays:
[1] = target: T1, CDK2/CyclinA (Homo sapiens, UniProt P24941); experiment: In vitro kinase activity assay (PKLight), CDK2/Cyclin A; format: biochemical; settings: 0.5 μM ATP
T1 construct: purchased Invitrogen PV3267
Method: (§1) The recombinant enzymes (CDK2/CyclinA, FLT3, JAK2 and JAK2 V617F) were purchased from Invitrogen (Cat #PV3267, 3182, 4210 and 4347 respectively). All assays were carried out in 384-well white microtiter plates using the PKLight assay system from Cambrex (East Rutherford, N.J.). This assay platform is essentially a luminometric assay for the detection of ATP in the reaction using a luciferase-coupled reaction. For CDK2/Cyclin A assay, the reaction mixture consisted of the following components in 25 μL assay buffer (50 mM Hepes pH 7.5, 10 mM MgCl2, 5 mM MnCl2, 5 mM BGP, 1 mM DTT, 0.1 mM sodium orthovanadate), 1.4 μg/mL of CDK2/Cyclin A complex, 0.5 μM of RbING substrate (Invitrogen, Cat #PV2939) and 0.5 μM of ATP. The compounds were tested at 8 concentrations prepared from 4-fold serial dilution starting at 10 μM. The reaction was incubated at room temperature for 2 hr. 13 μL of PKLight ATP detection reagent was added and the reaction was incubated for 10 min. Luminescence signals were detected on a multi-label plate reader (Victor^2 V 1420, Perkin-Elmer). The other kinase assays were identical except for the following differences in reagents. For FLT3 assays, the reaction contained 2.0 μg/mL FLT3 enzyme, 5 μM of poly(Glu,Tyr) substrate (Sigma, Cat #P0275) and 4 μM of ATP. For JAK2 assays, the reaction contained 0.6 μg/mL of JAK2 enzyme, 2 μM of poly(Glu,Ala,Tyr) substrate (Sigma, Cat #P3899) and 0.2 μM of ATP. For JAK2 V617F mutant assays, the reaction contained 8.0 μg/mL of JAK2 mutant enzyme, 2 μM of poly(Glu,Ala,Tyr) substrate (Sigma, Cat #P3899) and 0.2 μM of ATP. The analytical software, Prism 4.0 (GraphPad Software Pte Ltd) was used to generate IC50 values from the data.

[2] = target: T2, FLT3 (Homo sapiens, UniProt P36888); experiment: In vitro kinase activity assay (PKLight), FLT3; format: biochemical
T2 construct: purchased Invitrogen PV3182
T2 sequence (P36888 27-993): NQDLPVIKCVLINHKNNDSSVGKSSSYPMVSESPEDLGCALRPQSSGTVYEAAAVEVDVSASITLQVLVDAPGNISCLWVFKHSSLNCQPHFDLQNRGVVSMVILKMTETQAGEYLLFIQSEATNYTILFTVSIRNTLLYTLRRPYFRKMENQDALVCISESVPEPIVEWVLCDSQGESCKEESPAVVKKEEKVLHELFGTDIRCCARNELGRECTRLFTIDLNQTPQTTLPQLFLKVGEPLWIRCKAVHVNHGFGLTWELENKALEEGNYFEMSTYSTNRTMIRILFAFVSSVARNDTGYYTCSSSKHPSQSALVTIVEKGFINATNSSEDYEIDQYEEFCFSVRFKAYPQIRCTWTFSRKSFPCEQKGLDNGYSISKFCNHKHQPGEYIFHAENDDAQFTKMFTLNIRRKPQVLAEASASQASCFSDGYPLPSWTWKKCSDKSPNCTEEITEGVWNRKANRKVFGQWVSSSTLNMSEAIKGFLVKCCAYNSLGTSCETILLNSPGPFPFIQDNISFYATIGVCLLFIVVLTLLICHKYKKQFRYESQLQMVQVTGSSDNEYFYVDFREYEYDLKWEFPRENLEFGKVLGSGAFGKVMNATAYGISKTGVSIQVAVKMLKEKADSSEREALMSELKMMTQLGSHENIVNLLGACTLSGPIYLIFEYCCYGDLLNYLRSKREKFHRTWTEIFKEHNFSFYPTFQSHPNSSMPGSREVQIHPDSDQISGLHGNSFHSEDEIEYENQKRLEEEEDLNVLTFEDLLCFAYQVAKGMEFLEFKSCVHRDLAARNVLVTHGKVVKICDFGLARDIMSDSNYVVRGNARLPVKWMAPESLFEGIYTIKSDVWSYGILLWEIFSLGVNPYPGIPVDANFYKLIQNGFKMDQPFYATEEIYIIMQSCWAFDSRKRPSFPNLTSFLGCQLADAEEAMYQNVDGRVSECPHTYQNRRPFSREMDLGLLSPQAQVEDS
Method: as §1, with “All” for “The recombinant enzymes (CDK2/CyclinA, FLT3, JAK2 and JAK2 V617F) were purchased from Invitrogen (Cat #PV3267, 3182, 4210 and 4347 respectively). All”, “For JAK2 V617F mutant assays, the reaction contained 8.0 μg/mL of JAK2 mutant enzyme, 2 μM of poly(Glu,Ala,Tyr) substrate (Sigma, Cat #P3899) and 0.2 μM of ATP.” left out

[3] = target: T3, JAK2 (Homo sapiens, UniProt O60674); experiment: In vitro kinase activity assay (PKLight), JAK2; format: biochemical
T3 construct: purchased Invitrogen PV4210
T3 sequence (O60674 whole entry): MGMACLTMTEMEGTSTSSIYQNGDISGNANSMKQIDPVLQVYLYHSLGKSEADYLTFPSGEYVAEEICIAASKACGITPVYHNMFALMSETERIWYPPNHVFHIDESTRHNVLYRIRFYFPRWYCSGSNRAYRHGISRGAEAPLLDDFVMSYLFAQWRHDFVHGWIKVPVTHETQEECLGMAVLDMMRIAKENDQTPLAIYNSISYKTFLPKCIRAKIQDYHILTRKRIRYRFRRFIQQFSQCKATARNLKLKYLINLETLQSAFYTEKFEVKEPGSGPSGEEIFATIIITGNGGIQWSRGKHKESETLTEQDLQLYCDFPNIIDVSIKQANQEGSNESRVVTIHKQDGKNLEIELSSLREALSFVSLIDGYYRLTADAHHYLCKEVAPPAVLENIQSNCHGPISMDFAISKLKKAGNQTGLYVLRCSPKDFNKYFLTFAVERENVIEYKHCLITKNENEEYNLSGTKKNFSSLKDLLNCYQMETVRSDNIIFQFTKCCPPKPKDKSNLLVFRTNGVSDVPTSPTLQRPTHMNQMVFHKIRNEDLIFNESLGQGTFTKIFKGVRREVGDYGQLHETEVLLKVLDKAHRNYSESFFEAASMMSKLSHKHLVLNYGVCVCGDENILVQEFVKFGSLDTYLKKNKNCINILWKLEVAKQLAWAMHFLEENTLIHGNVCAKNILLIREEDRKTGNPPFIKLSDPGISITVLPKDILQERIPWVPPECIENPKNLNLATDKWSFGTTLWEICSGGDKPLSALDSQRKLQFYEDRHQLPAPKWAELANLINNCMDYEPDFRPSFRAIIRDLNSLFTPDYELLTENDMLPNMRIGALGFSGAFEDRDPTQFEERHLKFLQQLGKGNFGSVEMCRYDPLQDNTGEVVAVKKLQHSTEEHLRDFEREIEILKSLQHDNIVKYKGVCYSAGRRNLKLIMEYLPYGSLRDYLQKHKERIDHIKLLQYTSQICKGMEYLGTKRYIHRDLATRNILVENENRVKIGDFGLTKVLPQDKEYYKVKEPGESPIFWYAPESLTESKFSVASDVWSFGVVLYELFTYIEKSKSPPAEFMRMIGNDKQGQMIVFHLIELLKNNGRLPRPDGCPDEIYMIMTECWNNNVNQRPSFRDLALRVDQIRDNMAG
Method: as §1, with “All” for “The recombinant enzymes (CDK2/CyclinA, FLT3, JAK2 and JAK2 V617F) were purchased from Invitrogen (Cat #PV3267, 3182, 4210 and 4347 respectively). All”, “For JAK2 V617F mutant assays, the reaction contained 8.0 μg/mL of JAK2 mutant enzyme, 2 μM of poly(Glu,Ala,Tyr) substrate (Sigma, Cat #P3899) and 0.2 μM of ATP.” left out

[4] = test system: HL60 (acute myeloid leukemia cell line); experiment: Cell-based proliferation assay for GI50, HL60; settings: Homo sapiens, HL-60; HL60 cells, 96 h treatment
Method: (§2) Human cancer cell lines HL60 (acute myeloid leukemia cell line), Colo205 (colon adenocarcinoma cell line), HEL92.1.7 (erythroleukemia cell line) and MV4-11 (acute myeloid leukemia cell line) were obtained from ATCC. They were cultivated in the media according to the ATCC work instructions. Colo205 cells were seeded in 96-wells plate at 5000 cells per well. HEL92.1.7 and MV4-11 cells were seeded at 6000 cells per well while HL60 cells were seeded at 8000 cells per well in 96 well plate. The plates were incubated at 37° C., 5% CO2, for 24 h. Cells were treated with compounds at various concentrations for 96 h. Cell growth was then monitored using Celltiter96 Aqueous One Solution Cell Proliferation Assay from Promega (Madison Wis.). Dose response curves were plotted to determine GI50 values for the compounds using XL-fit (ID Business Solution, Emeryville, Calif.).

[5] = test system: HEL92.1.7 (erythroleukemia cell line); experiment: Cell-based proliferation assay for GI50, HEL92.1.7; settings: Homo sapiens, HEL 92.1.7; HEL92.1.7 cells, 96 h treatment
Method: as §2

[6] = test system: MV4-11 (acute myeloid leukemia cell line); experiment: Cell-based proliferation assay for GI50, MV4-11; settings: Homo sapiens; MV4-11 cells, 96 h treatment
Method: as §2

[7] = target: T4, JAK2 V617F (Homo sapiens, UniProt O60674, V617F); experiment: In vitro kinase activity assay (PKLight), JAK2 V617F mutant; format: biochemical
T4 construct: purchased Invitrogen PV4347
T4 sequence (O60674 whole entry V617F): as the sequence (O60674 whole entry) above, with V617F counted along it
Method: as §1, with “All” for “The recombinant enzymes (CDK2/CyclinA, FLT3, JAK2 and JAK2 V617F) were purchased from Invitrogen (Cat #PV3267, 3182, 4210 and 4347 respectively). All”, “For JAK2 V617F mutant assays, the reaction contained 8.0 μg/mL of JAK2 mutant enzyme, 2 μM of poly(Glu,Ala,Tyr) substrate (Sigma, Cat #P3899) and 0.2 μM of ATP.” left out

[8] = test system: Colo205 (colon adenocarcinoma cell line); experiment: Cell-based proliferation assay for GI50, Colo205; settings: Homo sapiens, COLO 205; Colo205 cells, 96 h treatment
Method: as §2

| SMILES | IC50 [1] | IC50 [2] | IC50 [3] | GI50 [4] | GI50 [5] | GI50 [6] | IC50 [7] | GI50 [8] |
| --- | --- | --- | --- | --- | --- | --- | --- | --- |
| CCN(CC)CCOc1ccc2cc1COC/C=C/CCOc1cccc(c1)-c1ccnc(n1)N2 [Compound 19] | > 5000 nM | ≤ 1000 nM | ≤ 1000 nM | ≤ 1000 nM | ≤ 1000 nM | ≤ 1000 nM | ≤ 1000 nM | ≤ 1000 nM |
| CCN(CC)CCOc1ccc2cc1COC/C=C/CCOc1cc(ccc1OC)-c1ccnc(n1)N2 [Compound 20] | > 5000 nM | ≤ 1000 nM | ≤ 1000 nM | 1000 to 5000 nM | > 5000 nM | ≤ 1000 nM | ≤ 1000 nM | > 5000 nM |
| CCN(CC)CCOc1ccc2cc1COC/C=C/CCOc1cccc(c1)-c1nc(ncc1C)N2 [Compound 29] | > 5000 nM | ≤ 1000 nM | ≤ 1000 nM | ≤ 1000 nM | 1000 to 5000 nM | ≤ 1000 nM | ≤ 1000 nM | – |
| COc1ccc2cc1COC/C=C\COc1cccc(c1)-c1ccnc(n1)N2 [Compound 7] | > 5000 nM | ≤ 1000 nM | > 5000 nM | ≤ 1000 nM | > 5000 nM | > 5000 nM | – | > 5000 nM |
| COc1ccc2cc1COC/C=C/COc1cccc(c1)-c1ccnc(n1)N2 [Compound 6] | ≤ 1000 nM | ≤ 1000 nM | ≤ 1000 nM | 1000 to 5000 nM | – | – | – | 1000 to 5000 nM |
| CCN(CC)CCOc1ccc2cc1COC/C=C/COCc1cccc(c1)-c1ccnc(n1)N2 [Compound 15] | 1000 to 5000 nM | ≤ 1000 nM | ≤ 1000 nM | ≤ 1000 nM | 1000 to 5000 nM | ≤ 1000 nM | ≤ 1000 nM | 1000 to 5000 nM |
| C1=C/COCc2cc(ccc2OCCN2CCCC2)Nc2nccc(n2)-c2cccc(c2)COC/1 [Compound 13] | 1000 to 5000 nM | – | – | ≤ 1000 nM | 1000 to 5000 nM | ≤ 1000 nM | – | 1000 to 5000 nM |
| C1=C/COCc2cc(ccc2N2CCOCC2)Nc2nccc(n2)-c2cccc(c2)COC/1 [Compound 33] | > 5000 nM | ≤ 1000 nM | ≤ 1000 nM | 1000 to 5000 nM | 1000 to 5000 nM | ≤ 1000 nM | – | – |
| COc1cc2cc(c1OCCN1CCCC1)COC/C=C/COCc1cccc(c1)-c1ccnc(n1)N2 [Compound 32] | 1000 to 5000 nM | ≤ 1000 nM | ≤ 1000 nM | ≤ 1000 nM | 1000 to 5000 nM | ≤ 1000 nM | – | – |

Results, then the compound that gave them:

| IC50 [1] | IC50 [2] | IC50 [3] | GI50 [4] | GI50 [5] | GI50 [6] | IC50 [7] | GI50 [8] | SMILES |
| --- | --- | --- | --- | --- | --- | --- | --- | --- |
| 1000 to 5000 nM | ≤ 1000 nM | ≤ 1000 nM | ≤ 1000 nM | 1000 to 5000 nM | ≤ 1000 nM | – | – | c1cc2cc(c1)-c1ccnc(n1)Nc1ccc(OCCN3CCCC3)c(c1)COCC1CC1COC2 (stereo not shown) [Compound 53] |
| 1000 to 5000 nM | ≤ 1000 nM | ≤ 1000 nM | ≤ 1000 nM | 1000 to 5000 nM | ≤ 1000 nM | – | – | Fc1ccc2cc1COC/C=C/COCc1cc(ccc1OCCN1CCCC1)Nc1nccc-2n1 [Compound 46] |
| > 5000 nM | ≤ 1000 nM | ≤ 1000 nM | ≤ 1000 nM | 1000 to 5000 nM | ≤ 1000 nM | – | – | C1=C2COC/C=C/COCc3cc(ccc3OCCN3CCCC3)Nc3nccc(n3)C(=C1)O2 [Compound 38] |
| > 5000 nM | ≤ 1000 nM | ≤ 1000 nM | ≤ 1000 nM | 1000 to 5000 nM | ≤ 1000 nM | – | – | C1=C/COCc2cc(ccc2OCCN2CCCC2)Nc2nccc(n2)-c2coc(c2)COC/1 [Compound 50] |
| > 5000 nM | ≤ 1000 nM | ≤ 1000 nM | 1000 to 5000 nM | 1000 to 5000 nM | ≤ 1000 nM | – | – | C1=C/COCc2cc(ccc2OCCN2CCCC2)Nc2nccc(n2)-c2cc(co2)COC/1 [Compound 55] |
| 1000 to 5000 nM | ≤ 1000 nM | ≤ 1000 nM | ≤ 1000 nM | 1000 to 5000 nM | ≤ 1000 nM | – | – | Fc1cc2cc(c1)-c1ccnc(n1)Nc1ccc(OCCN3CCCC3)c(c1)COC/C=C/CCO2 [Compound 36] |
| > 5000 nM | ≤ 1000 nM | ≤ 1000 nM | ≤ 1000 nM | ≤ 1000 nM | ≤ 1000 nM | – | – | CN1CCN(c2ccc3cc2COC/C=C/COCc2cccc(c2)-c2ccnc(n2)N3)CC1 [Compound 40] |
| > 5000 nM | ≤ 1000 nM | ≤ 1000 nM | ≤ 1000 nM | ≤ 1000 nM | ≤ 1000 nM | – | – | C1=C/COCc2cc(ccc2OCCN2CCCC2)Nc2nccc(n2)-c2csc(c2)COC/1 [Compound 52] |
| 1000 to 5000 nM | ≤ 1000 nM | ≤ 1000 nM | ≤ 1000 nM | 1000 to 5000 nM | ≤ 1000 nM | – | – | C1=C/COCc2cc(ccc2OCCN2CCCC2)Nc2nccc(n2)-c2cncc(c2)COC/1 [Compound 56] |
| > 5000 nM | ≤ 1000 nM | ≤ 1000 nM | ≤ 1000 nM | ≤ 1000 nM | ≤ 1000 nM | – | ≤ 1000 nM | C1=C2COC/C=C/COCc3cc(ccc3OCCN3CCCC3)Nc3nccc(n3)C(=C1)S2 [Compound 48] |
